Assay results taken from patent publication US8993256B2, “Fusion proteins and polynucleotide constructs to measure protein turn-over” (priority 2006, dated 2015).

Columns and labels:
HCV NS3 protease [1] = format: cell-based, hepatitis C virus; settings: HEK293 cells grown with or without BILN-2061 (0, 1 μM, or 10 μM)
Source text: For testing of the drug-regulatable epitope tag concept by immunoblotting, a construct of linear fusions of PSD-95, HCV NS3 protease flanked on both sides by cleavage sites, an HA epitope tag, and the cyan fluorescent protein (CFP) was used.
For each construct, HEK293 cells were transfected with Lipofectamine 2000, grown with or without the NS3 protease inhibitor BILN-2061 (Lamarre et al., 2003), and immunoblotted after boiling/SDS lysis with anti-PSD-95 to differentiate uncleaved and cleaved products by molecular weight.
Experiments using the constructs of the disclosure were performed in transiently transfected mammalian cells by immunoblotting.

HCV NS3 protease [2] = molecular target: HCV NS3 protease (Hepatitis C virus genotype 1a, UniProt P27958); format: cell-based; settings: TimeSTAMPt; hippocampal neurons 18 DIV, 9 DPT
Chain of HCV NS3 protease (Hepatitis C virus genotype 1a, UniProt P27958) (P27958 1027-1208): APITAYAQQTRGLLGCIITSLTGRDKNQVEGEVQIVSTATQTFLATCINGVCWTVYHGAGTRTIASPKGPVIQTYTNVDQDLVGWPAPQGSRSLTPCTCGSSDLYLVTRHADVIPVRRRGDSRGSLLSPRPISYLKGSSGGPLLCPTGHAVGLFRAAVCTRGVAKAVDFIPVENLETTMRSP
Source text: (§1) Hippocampal neurons were dissected from postnatal day 0 or 1 rat pups and cultured in Neurobasal medium supplemented with B27 and glutamine. For immunoblotting experiments, neurons were transfected prior to plating using the Amaxa Nucleofector protocol. For other experiments, neurons were transfected at 7-10 DIV by calcium phosphate.
(§2) To recapitulate endogenous mechanisms of mRNA localization and translation, the 5′ and 3′ untranslated regions of each gene were included in all constructs.

HCV NS3 protease [3] = molecular target: HCV NS3 protease (Hepatitis C virus genotype 1a, UniProt P27958, T1080A); format: cell-based; settings: TimeSTAMPa; hippocampal neurons 18 DIV, 9 DPT
Chain of HCV NS3 protease (Hepatitis C virus genotype 1a, UniProt P27958, T1080A) (P27958 1027-1208 T1080A): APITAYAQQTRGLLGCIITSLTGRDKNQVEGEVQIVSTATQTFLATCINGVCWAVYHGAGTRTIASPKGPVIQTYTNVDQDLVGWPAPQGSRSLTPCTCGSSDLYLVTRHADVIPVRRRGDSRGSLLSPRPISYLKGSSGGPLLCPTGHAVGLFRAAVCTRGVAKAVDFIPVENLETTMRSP
Source text: as §1, §2

[4] = molecular target: HSV-TimeSTAMPt-HA-dCaMKII (Hepatitis C virus genotype 1a, UniProt P27958); format: in vivo, Drosophila melanogaster; settings: adult flies, brains analyzed 6 hours after BILN-2061
Chain of HSV-TimeSTAMPt-HA-dCaMKII (P27958 1027-1208): as the sequence (P27958 1027-1208) above
Source text: Homozyous transformed lines were established from single progeny of embryos injected with pUAST-HSV-TimeSTAMPt-HA-dCaMKII or pUAST-HSV-TimeSTAMPa-HA-dCaMKII. […] Male homozygotes with third-chromosome insertions were crossed to elav-GAL4; UAS-tubulin-GFP; + females, and the male elavGAL4/Y; UAS-tubulin-GFP/+; HSV-TimeSTAMP-HA-dCaMKII/+ progeny were used for experiments within 2 days post-eclosion.
For experiments involving HSV-TimeSTAMPt-HA-dCaMKII, flies were anesthesized by carbon dioxide, then a hole was punctured in the medial ocellus region using a glass micropipette with a 10 μm bore and a 25 nL drop of 2 mM BILN-2061 in 20% DMSO 5% Cremophor EL in Hank's buffered saline solution (HBSS) was placed over the region. […] For HSV-TimeSTAMPa-HA-dCaMKII, flies were starved for 12 hours with only water, then placed in a vial with an emulsion of 30% (w/v) yeast, 30% (v/v) glycerol, 30% (v/v) water, 5% green food coloring, 5% dimethylformamide, and 500 μM BILN-2061. […] For analysis, flies were decapitated and brains were simultaneously dissected and fixed in HBSS with 4% paraformaldehyde and 0.2% Triton X-100 for 40 minutes at room temperature. Brains were processed for immunocytochemistry by standard methods and imaged on a Zeiss LSM510 or LSM5Live confocal microscope.
Transgenic flies were generated expressing this fusion protein in all neurons.

[5] = tested on: new protein synthesis in neurons; test: Dependence of TimeSTAMP tag appearance on new protein synthesis in neurons; format: cell-based, rat; settings: for HA-tagged Arc appearing after incubation in 10 μM BILN for 6 hours: Arc-TimeSTAMPa-HA neurons, 7 DIV, simultaneous treatment (cycloheximide 50 μg/mL or BDNF)
Source text: as §1, §2

| Molecule | Cleavage of constructs containing the NS3 domain alone without NS4A cofactor (immunoblot) (HCV NS3 protease [1]) | HA immunofluorescence induction (HCV NS3 protease [2]) [fold] | HA immunofluorescence induction (HCV NS3 protease [3]) [fold] | HSV labelling for newly synthesized dCaMKII in fly brain [4] | Synaptic HA staining of PSD-95-GFP-TimeSTAMPa-HA after 6 hours of BILN-2061 ([5]; 50 μg/mL cycloheximide, 18 DIV neurons, 9 DPT) | HA-tagged Arc appearing after incubation in 10 μM BILN for 6 hours [5] |
| --- | --- | --- | --- | --- | --- | --- |
| COc1ccc2c(O[C@@H]3C[C@H]4C(=O)N[C@]5(C(=O)O)C[C@H]5/C=C\CCCCC[C@H](NC(=O)OC5CCCC5)C(=O)N4C3)cc(-c3csc(NC(C)C)n3)nc2c1 [BILN-2061] | inhibited | 121 | 20 | HSV labelling for newly synthesized dCaMKII is present in the mushroom bodies |  |  |
| C[C@@H]1C[C@@H]([C@H](O)CC2CC(=O)NC(=O)C2)C(=O)[C@@H](C)C1 [cycloheximide] |  |  |  |  | No staining | blocked |
| BDNF: growth factor used for translational induction (protein, UniProt P23560 19-247, looked up) Neurotrophic factor BDNF …: APMKEANIRGQGGLAYPGVRTHGTLESVNGPKAGSRGLTSLADTFEHVIEELLDEDQKVRPNEENNKDADLYTSRVMLSSQVPLEPPLLFLLEEYKNYLDAANMSMRVRRHSDPARRGELSVCDSISEWVTAADKKTAVDMSGGTVTVLEKVPVSKGQLKQYFYETKCNPMGYTKEGCRGIDKRHWNSQCRTTQSYVRALTMDSKKRIGWRFIRIDTSCVCTLTIKRGR |  |  |  |  |  | increased |
